Laboratory results from patent publication US20220194960A1, “WEE1 INHIBITOR AND PREPARATION AND USE THEREOF” (SHOUYAO HOLDINGS (BEIJING) CO., LTD., priority 2019, published 2022).

Tests used:
[1] = molecular target: T1, WEE1 kinase (Homo sapiens, UniProt P30291); assay: WEE1 kinase binding assay (LanthaScreen EU); settings: WEE1 kinase 20 nM, Kinase Tracer 178 100 nM, 23° C. for 60 min, read-out: WEEI (IC50)
T1 construct: purchased Carna bioscience
Protocol: 1. Assay for WEE1 Kinase Inhibitory Activity (IC50) on Compounds
The WEE1 kinase binding assay was established and optimized with LanthaScreen EU for the determination of the activity of compounds. 10 mM compounds were subjected to ten-fold gradient dilution in 100% DMSO (6 concentrations in total), 5 μL of diluent from each concentration was added to 45 μL of reaction buffer (50 mM HEPES (4-hydroxyethylpiperazine ethanesulfonic acid), pH 7.5, 10 mM MgCl2 (magnesium chloride), 1 mM EGTA (ethylene glycol diethyl ether diamine tetraacetic acid), 0.01% Brij-35 (polyoxyethylene lauryl ether)) for blending. On this basis, 2 μL diluent from each concentration was added to 48 μL of reaction buffer for blending as a 4*compound (final concentrations of 1000, 100, 10, 1, 0.1, 0 nM) for later use. Reaction buffer was used to formulate 4*WEE1 kinase (purchased from Carna bioscience, a final concentration of 20 nM), 4*LanthaScreen EU-anti-GST Antibody (purchased from Invitrogen, PV5594, a fuel concentration of 2 nM), and 4*Kinase Tracer 178 (purchased from Invitrogen, PV5593, a final concentration of 100 nM). 2.5 μL of 4*compound was added to a 384-well plate (OptiPlate-384, purchased from PerkinElmer), followed by adding 2.5 μL of 4*WEE1 kinase, standing for 5 min at room temperature. Then 2.5 μL of 4*LanthaScreen EU-anti-GST Antibody was added followed by 2.5 μL of 4*Kinase Tracer 178. The reaction was started by centrifugation (a total reaction volume of 10 μL). The 384-well plate was wrapped with tin foil paper and placed in an incubator at 23° C. for 60 min. Fluorescence values (excitation at 320 nm, detecting emitted light at 665 nm and 615 nm, and a ratio of the two as enzyme activity) were read on Envision (purchased from PerkinElmer). The enzyme activity of each compound was measured at 6 concentrations, and the IC50 value of the compound was calculated using GraFit6.0 software (Erithacus Software).
The aforementioned “*” refers to multiplying, representing multiples.

[2] = system: Human non-small cell lung cancer cells NCI-H1299; assay: NCI-H1299 cell proliferation inhibition (CellTiter-Glo); assay type: cell-based; settings: cultured 3 days, table head NCI-H1975, method NCI-H1299
Protocol: 2. Determination of Cell Proliferation Activity of Compounds:
NCI-H1299 cell proliferation inhibition screening method was established using CellTiter-fib detection reagent from Promega.
Human non-small cell lung cancer cells NCI-H1299 were cultured in 25 cm^2 or 75 cm^2 plastic tissue culture flasks (Corning) filled with DMEM (Gibco) medium supplemented with 10% fetal bovine serum (Hyclone) under 37° C., 95% air, and 5% CO2, and subcultured 2-3 times a week.
Cells were seeded at 1000 cells/well in a 96-well cell culture plate (Corning), 195 μL/well, and cultured under 37° C., 95% air, and 5% CO2. The next day test compound was added: 10 mM compounds (dissolved in DMSO) were subjected to 3-fold gradient dilution in DMSO, 2 μL of diluent from each concentration was added to 48 μL of serum-fret medium, and finally 5 μL of the diluted compound was added to the plate seeded with cells. The final concentration of DMSO in the cell culture was 0.1% and the foul concentration of the test compound was 0.3 nM-10 μM. The cells were cultured at 37° C. for 3 days.

T1 sequence (P30291 whole entry): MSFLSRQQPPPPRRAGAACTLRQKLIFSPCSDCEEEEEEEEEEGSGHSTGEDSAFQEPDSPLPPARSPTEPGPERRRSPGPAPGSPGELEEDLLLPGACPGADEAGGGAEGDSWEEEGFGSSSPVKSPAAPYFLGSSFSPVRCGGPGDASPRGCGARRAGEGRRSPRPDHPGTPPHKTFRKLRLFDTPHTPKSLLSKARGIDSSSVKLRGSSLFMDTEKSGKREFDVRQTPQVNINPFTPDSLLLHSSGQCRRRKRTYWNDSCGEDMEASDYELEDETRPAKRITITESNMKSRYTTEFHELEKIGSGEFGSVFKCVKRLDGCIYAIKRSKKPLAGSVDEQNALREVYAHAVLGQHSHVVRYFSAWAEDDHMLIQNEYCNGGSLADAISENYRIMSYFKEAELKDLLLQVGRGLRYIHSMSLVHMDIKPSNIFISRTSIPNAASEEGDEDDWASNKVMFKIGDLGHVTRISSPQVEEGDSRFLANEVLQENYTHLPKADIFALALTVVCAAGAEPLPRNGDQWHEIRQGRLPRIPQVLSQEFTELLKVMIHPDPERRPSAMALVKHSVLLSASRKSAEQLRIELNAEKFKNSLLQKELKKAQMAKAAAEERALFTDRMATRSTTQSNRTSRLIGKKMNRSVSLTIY

Compound	IC50 [1] [nM]	IC50 ([2]; Homo sapiens, 72 h) [nM]	IC50 [2] [nM]
CS(C)(=O)=Nc1cccc(-n2c(C3CC3)cc3cnc(Nc4ccc(N5CC6CCC(C5)N6)c(F)c4)nc32)n1 [Example 101, ((6-(2-((4-(3,8-diazabicyclo[3.2.1]octan-3-yl)-3-fluorophenyl)amino)-6-cyclopropyl-7H-pyrrolo[2,3-d]pyrimidin-7-yl)pyridin-2-yl)imino)dimethyl-λ^6-sulfanone]	0.7	66	
CN(C)CCN1CCN(c2ccc(Nc3ncc4cc(C5CC5)n(-c5cccc(N=S(C)(C)=O)n5)c4n3)cc2)CC1 [Example 108]	0.61	70	
CN1[C@@H]2CC[C@H]1CN(c1ccc(Nc3ncc4c(F)c(C5CC5)n(-c5cccc(N=S(C)(C)=O)n5)c4n3)cc1)C2 [Example 82, ((6-(6-cyclopropyl-5-fluoro-2-((4-((1R,5S)-8-methyl-3,8-diazabicyclo[3.2.1]octan-3-yl)phenyl)amino)-7H-pyrrolo[2,3-d]pyrimidin-7-yl)pyridin-2-yl)imino)dimethyl-Ab-sulfanone]	0.58	64	
CN1CCN(c2ccc(Nc3ncc4cc(C5CC5)n(-c5cccc(N=S(C)(C)=O)n5)c4n3)cc2F)CC1 [Example 40, ((6-(2-(((3-fluoro-4-(4-methylpiperazin-1-yl)phenyl))amino) 6-cyclopropyl-7H-pyrrolo[2,3-d]pyrimidin-7-yl)pyridin-2-yl)imino)dimethyl-λ^6-sulfanone]	0.51	42	
CN1CC2(CCN(c3ccc(Nc4ncc5c(F)c(C6CC6)n(-c6cccc(N=S(C)(C)=O)n6)c5n4)cc3)CC2)C1 [Example 86, ((6-(6-cyclopropyl-5-fluoro-2-((4-(2-methyl-2,7-diazaspiro[3.5]nonan-7-yl)phenyl)amino)-7H-pyrrolo[2,3-d]pyrimidin-7-yl)pyridin-2-yl)imino)dimethyl-λ^6-sulfanone]	0.54	60	
CN1CCN(c2ccc(Nc3ncc4c(F)c(C5CC5)n(-c5cccc(N=S(C)(C)=O)n5)c4n3)cc2)CC1CO (stereo not shown) [Example 27, ((6-(6-cyclopropyl-5-fluoro-2 ((4-(3-hydroxymethyl-4-methylpiperazin-1-yl)phenyl)amino)-7H-pyrrolo[2,3-d]pyrimidin-7-yl)pyridin-2-yl)imino)dimethyl-λ^6-sulfanone]	0.57	60	
CCCc1cc2cnc(Nc3ccc(N4CCN(C)CC4)cn3)nc2n1-c1cccc(N=S(C)(C)=O)n1 [Example 110, ((6-(6-propyl-2-((5-(4-methylpiperazin-1-yl)pyridin-2-yl)amino)-7H-pyrrolo[2,3-d]pyrimidin-7-yl)pyridin-2-yl)imino)dimethyl-λ^6-sulfanone]	0.69		88
COC(=O)CN1CCN(c2ccc(Nc3ncc4cc(C5CC5)n(-c5cccc(N=S(C)(C)=O)n5)c4n3)cc2)CC1 [Example 127]	0.66	70	

Second part, the molecule after the results:

IC50 [1] [nM]	IC50 ([2]; Homo sapiens, 72 h) [nM]	IC50 [2] [nM]	Compound
0.8	42		CN1CCN(C2CCN(c3ccc(Nc4ncc5cc(C6CC6)n(-c6cccc(N=S(C)(C)=O)n6)c5n4)cc3F)CC2)CC1 [Example 48, ((6-(2-((3-fluoro-4-(4-(4-methylpiperazin-1-yl)piperidin-1-yl)phenyl)amino)-6-cyclopropyl-7H-pyrrolo[2,3-d]pyrimidin-7-yl)pyridin-2-yl)imino)dimethyl-λ^6-sulfanone]
0.85	79		CN1CC2(CCN(c3ccc(Nc4ncc5cc(C6CC6)n(-c6cccc(N=S(C)(C)=O)n6)c5n4)cc3)CC2)C1 [Example 85, ((6-(6-cyclopropyl-2-((4-(2-methyl-2,7-diazaspiro[3.5]nonan-7-yl)phenyl)amino)-7H-pyrrolo[2,3-d]pyrimidin-7-yl)pyridin-2-yl)imino)dimethyl-λ^6-sulfanone]
0.51	59		Cc1cc2cnc(Nc3ccc(N4CCN(C)CC4)cc3)nc2n1-c1cccc(N=S(C)(C)=O)n1 [Example 13, ((6-(6-methyl-2 ((4 (4-methylpiperazin-1-yl)phenyl)amino)-7H-pyrrolo[2,3-d]pyrimidin-7-yl)pyridin-2-yl)imino)dimethyl-λ^6-sulfanone]
